A melting point compilation (Tetko et al.; mined from patent text by program, amines drawn as free bases though some values may be those of a salt)

Compound | melting point [°C]
O=[N+]([O-])c1ccc(CP2(=O)OCCCO2)cc1 | 144 to 145
O=C(O)c1cccc(-c2cc(-c3ccc(C(F)(F)F)cc3)no2)c1 | 272 to 273
CNC(=O)c1c(C)nc(C)n1Cc1ccc2oc(-c3ccccc3NS(=O)(=O)C(F)(F)F)c(Br)c2c1 | 208 to 210
CC(N1C(=O)C(=O)N(c2ccc(C(C)(C)C)cc2)C1=S)C(C)(C)C (stereo not given) | 209 to 210
c1cc(-c2ccncn2)cc(-n2cnc3cc(-c4ccon4)ccc32)c1 | 214 to 215
C=CCc1cc(-c2ccc(F)cc2)cc(C(=O)O)c1O | 170 to 172
O=C1Nc2ccccc2C(c2ccccc2)CC1Br (stereo not given) | 191 to 192
COC(=O)COc1cc2c(c3c1c(C(=O)C(N)=O)c(C)n3Cc1ccccc1)CCC2 | 135 to 138
CC(C)(Cl)C(CCNC(=O)C(F)(F)F)N=O (stereo not given) | 91 to 93
CN1CCC(c2cc3ccc(Cl)cc3c(=O)[nH]2)CC1 | 253 to 255
COCCNc1c(N)cc(C(=O)O)cc1S(N)(=O)=O | 209 to 211
COc1ccn2nc(-c3ccccc3)c(-c3ccc(=O)n(C(C)C)n3)c2c1 | 180 to 182
COc1cc2c(cc1C(F)(F)F)N(C(=O)Nc1cc(F)cc(I)c1)CC2 | 221 to 224
CCOc1nn(Cc2ccc(OCc3nc(-c4ccccc4)ccc3Cl)cc2)cc1CCC(=O)O | 120 to 121
N#CC1CN1C(=O)CCN1C(=O)c2ccccc2C1=O (stereo not given) | 168 to 170
CCn1ncc2c(O)c(CCc3ccccc3)c(C(=O)O)nc21 | 250 to 251
O=Cc1c(O)c(Cl)cc(Cl)c1F | 58 to 62
O=C1Nc2c(Cl)cccc2C12COc1cc3c(cc12)CCO3 (stereo not given) | > 250
CCC[C@H]1CC[C@H](c2ccc(F)c(F)c2)CC1 | -15.4
Cn1ccc2c(NC(=O)c3ccccc3O)cccc21 | 211

Further lines, results first:

melting point [°C] | Compound
132 to 134 | CCOC(=O)c1cc(-c2ccc(Cl)cc2)cnc1C(Cl)Cl
176 to 178 | Cc1cn(N=Cc2cccnc2)c(=O)n1N=Cc1cccnc1
73 to 75 | CN(CCC=C1c2ccccc2COc2ccccc21)CCCCCC(O)c1ccc(C(C)(C)C)cc1 (stereo not given)
201 to 202 | O=c1c2cc3ccccc3cc2oc2cc(OCC3CO3)cc(O)c12 (stereo not given)
138 to 140 | CC(=O)N(CC(=O)N1c2ccccc2N(Cc2ccccc2)C(=O)[C@H]2CCC[C@H]21)C(=O)CCc1ccccc1 (relative stereo)
106 to 107 | Cc1nc(-n2cnn(CCNCc3ccc(F)cc3)c2=O)sc1C(=O)NCc1cccnc1
157 to 158 | COC(=O)C1=C(C)NC(=S)N(C(=O)OC(C)C)C1c1cccc([N+](=O)[O-])c1 (stereo not given)
204 to 205 | C#CCOC(=O)Nc1ccc(C2=NNC(=O)CC2C)cc1 (stereo not given)
140 to 142 | CC(=O)N1CCc2cc(C(=O)C(C)Br)ccc21 (stereo not given)
142 to 144 | COC(=O)c1cc(-c2ncnc(C)c2C#N)c(F)cc1Cl
64 to 67 | CCCC(=O)NCCC1=CCc2ccc(OC)cc21
44 to 45 | NCC(F)(F)C(F)(F)C(F)(F)C(F)(F)CN
213 to 214 | CC(=O)Nc1c(C(=O)c2ccc(OC(F)(F)F)cc2)[nH]c2cc(Cl)ccc12
176 | Cc1cc(Cl)cc(C(=O)Nc2nc(C)cs2)n1
205 to 206 | O=C(Nc1cccnc1)N1CCN(c2cc(-c3cccc(F)c3)ncn2)CC1
164 | Ic1ccc(-c2ccc(I)s2)s1
158 to 160 | COc1ccccc1NC(=O)c1ccc(C#N)cc1
225 to 227 | S=C1CC2Cc3ccc(Cl)cc3C2N1 (stereo not given)
129 to 130 | CCCOCCOC(=O)C1=C(C)NC(C)=C(c2nc(CCl)no2)C1c1cccc([N+](=O)[O-])c1 (stereo not given)
74 to 77 | CCCC=Cc1c(C(C)C)nc(C(C)C)c(C(=O)OCC)c1-c1ccc(C)cc1
